Values after ≈ are worked out from the molar mass of the structure shown. Active and inactive are the calls of the source. The calls are words filed in the database; no cut-off is given here.
Assays:
[1] = tested on: Trypanosoma brucei; experiment: Antitrypanosomal activity against bloodstream Trypanosoma brucei 221 infected in Balb/c mouse assessed as increase in mouse survival rate at 50 mg/kg, ip BID for 5 days starting 24 hrs post infection measured after 30 days by microscopic analysis; assay type: functional; settings: Trypanosoma brucei, 221, ip, route intraperitoneal
[2] = tested on: L929; experiment: Cytotoxicity against mouse L929 cells after 72 hrs by resazurin assay; assay type: cell-based; settings: L929, 72 h
[3] = tested on: Trypanosoma brucei; experiment: Antitrypanosomal activity against bloodstream Trypanosoma brucei 427 after 72 hrs by resazurin assay; assay type: functional, organism-based; settings: Trypanosoma brucei, 427, 72 h
[4] = Selectivity ratio of IC50 for mouse L929 cells to IC50 for bloodstream Trypanosoma brucei 427; assay type: ADME, cell-based; settings: read-out: Ratio IC50
[5] = tested on: Trypanosoma brucei; experiment: Antitrypanosomal activity against bloodstream Trypanosoma brucei 221 infected in Balb/c mouse assessed as complete elimination of parasitemia at 50 mg/kg, ip BID for 5 days starting 24 hrs post infection measured after 30 days by microscopic analysis; assay type: functional, organism-based; set-up: dose 50 mg/kg

`O=C(/C=C/c1ccc2c(c1)B(O)OC2)c1ccc(Br)cc1` gave a survival at 50 mg/kg [1] of 0%, an IC50 [2] greater than 10 µg/mL and an IC50 [3] of 0.09 µg/mL (≈ 0.262 µM).

`CSc1ccc(C(=O)/C=C/c2ccc3c(c2)B(O)OC3)cc1` showed an IC50 [2] greater than 10 µg/mL and an IC50 [3] of 0.059 µg/mL (≈ 0.19 µM).

For `O=C(/C=C/c1ccc2c(c1)B(O)OC2)c1cccs1`, the survival at 50 mg/kg [1] was 20%, the IC50 [2] was greater than 10 µg/mL and the IC50 [3] was 0.045 µg/mL (≈ 0.167 µM).

`Cn1cccc1C(=O)/C=C/c1ccc2c(c1)B(O)OC2` showed an IC50 [2] greater than 10 µg/mL and an IC50 [3] of 0.057 µg/mL (≈ 0.213 µM).

`O=C(/C=C/c1ccc2c(c1)B(O)OC2)c1ccc2c(c1)OCCO2` showed an IC50 [2] of 6.8 µg/mL (≈ 21.1 µM) and an IC50 [3] of 0.08 µg/mL (≈ 0.248 µM).

Work on `O=C(/C=C/c1ccc2c(c1)B(O)OC2)c1ccccc1F` yielded an IC50 [2] greater than 10 µg/mL and an IC50 [3] of 0.071 µg/mL (≈ 0.252 µM).

Compound `COCOc1cccc(C(=O)/C=C/c2ccc3c(c2)B(O)OC3)c1` has a survival at 50 mg/kg [1] of 0%, an IC50 [2] greater than 10 µg/mL and an IC50 [3] of 0.071 µg/mL (≈ 0.219 µM).

In the case of `CCc1ccc(C(=O)/C=C/c2ccc3c(c2)B(O)OC3)cc1`, the IC50 [2] is reported as greater than 10 µg/mL and the IC50 [3] is reported as 0.064 µg/mL (≈ 0.219 µM).

For `Cc1cccc(C(=O)/C=C/c2ccc3c(c2)B(O)OC3)c1`, the survival at 50 mg/kg [1] was 0%, the IC50 [2] was 8.56 µg/mL (≈ 30.8 µM) and the IC50 [3] was 0.048 µg/mL (≈ 0.173 µM).

In the case of `COc1cc(C(=O)/C=C/c2ccc3c(c2)B(O)OC3)ccc1N`, the survival at 50 mg/kg [1] is reported as 100%, the selectivity ratio [4] is reported as greater than 100 and the Activity [5] is reported as “Active”. For the same compound, the IC50 [2] was 1.45 µg/mL (≈ 4.69 µM) and the IC50 [3] was 0.01 µg/mL (≈ 0.0323 µM).

Compound `O=C(/C=C/c1ccc2c(c1)B(O)OC2)c1ccc(I)cc1` has an IC50 [2] greater than 10 µg/mL and an IC50 [3] of 0.171 µg/mL (≈ 0.438 µM).

In the case of `COc1cccc(C(=O)CCc2ccc3c(c2)B(O)OC3)c1`, the IC50 [2] is reported as greater than 10 µg/mL and the IC50 [3] is reported as 0.69 µg/mL (≈ 2.33 µM).

In the case of `CCOC(=O)c1ccc(C(=O)/C=C/c2ccc3c(c2)B(O)OC3)cc1`, the IC50 [2] is reported as greater than 10 µg/mL and the IC50 [3] is reported as 0.2 µg/mL (≈ 0.595 µM).

Compound `O=C(/C=C/c1ccc2c(c1)B(O)OC2)c1ccc(F)cc1` has a survival at 50 mg/kg [1] of 0%, an IC50 [2] greater than 10 µg/mL and an IC50 [3] of 0.1 µg/mL (≈ 0.355 µM).

With `COc1cc(C(=O)/C=C/c2ccc3c(c2)B(O)OC3)ccc1[N+](=O)[O-]` the survival at 50 mg/kg [1] was 0%, the IC50 [2] was greater than 10 µg/mL and the IC50 [3] was 0.044 µg/mL (≈ 0.13 µM).

Compound `COc1ccc(C(=O)/C=C/c2ccc3c(c2)B(O)OC3)cc1OC` has an IC50 [2] greater than 10 µg/mL and an IC50 [3] of 0.03 µg/mL (≈ 0.0926 µM).

In the case of `COc1cccc(C(=O)/C=C/c2ccc3c(c2)B(O)OC3)c1`, the survival at 50 mg/kg [1] is reported as 100%, the Activity [5] is reported as “Active” and the IC50 [2] is reported as greater than 10 µg/mL. It also gave an IC50 [3] of 0.022 µg/mL (≈ 0.0748 µM).

With `Nc1cccc(C(=O)/C=C/c2ccc3c(c2)B(O)OC3)c1` the IC50 [2] was 10 µg/mL (≈ 35.8 µM) and the IC50 [3] was 0.056 µg/mL (≈ 0.201 µM).

In the case of `O=C(/C=C/c1ccc2c(c1)B(O)OC2)c1ccc(OCc2ccccc2)cc1`, the IC50 [2] is reported as greater than 10 µg/mL and the IC50 [3] is reported as 0.164 µg/mL (≈ 0.443 µM).

In the case of `O=C(/C=C/c1ccc2c(c1)B(O)OC2)c1ccc(C(F)(F)F)cc1`, the IC50 [2] is reported as greater than 10 µg/mL and the IC50 [3] is reported as 0.133 µg/mL (≈ 0.4 µM).

Work on `COc1cccc(C(=O)/C=C/c2ccccc2)c1` yielded an IC50 [2] of 5.7 µg/mL (≈ 23.9 µM) and an IC50 [3] of 0.395 µg/mL (≈ 1.66 µM).

`O=C(/C=C/c1ccc2c(c1)B(O)OC2)c1ccccc1O` showed an IC50 [2] greater than 10 µg/mL and an IC50 [3] of 0.172 µg/mL (≈ 0.614 µM).

`OB1OCc2ccc(/C=C/C(O)c3ccccc3)cc21` (centres undefined) gave an IC50 [2] of 2.88 µg/mL (≈ 10.8 µM) and an IC50 [3] of 0.239 µg/mL (≈ 0.898 µM).

Compound `CC(=O)Nc1ccc(C(=O)/C=C/c2ccc3c(c2)B(O)OC3)cc1` has a survival at 50 mg/kg [1] of 0%, an IC50 [2] greater than 10 µg/mL and an IC50 [3] of 0.04 µg/mL (≈ 0.125 µM).

In the case of `O=C(/C=C/c1ccc2c(c1)B(O)OC2)c1ccc(O)c(O)c1`, the IC50 [2] is reported as greater than 10 µg/mL and the IC50 [3] is reported as 0.055 µg/mL (≈ 0.186 µM).

`O=C(CCc1ccc2c(c1)B(O)OC2)c1ccccc1` showed an IC50 [2] greater than 10 µg/mL and an IC50 [3] of 0.331 µg/mL (≈ 1.24 µM).

Compound `O=C(/C=C/c1ccc2c(c1)B(O)OC2)c1cccc2ccccc12` has an IC50 [2] of 3.67 µg/mL (≈ 11.7 µM) and an IC50 [3] of 0.135 µg/mL (≈ 0.43 µM).

`O=C(/C=C/c1ccc2c(c1)B(O)OC2)c1ccccc1` showed a survival at 50 mg/kg [1] of 0%, an IC50 [2] greater than 10 µg/mL and an IC50 [3] of 0.089 µg/mL (≈ 0.337 µM).

In the case of `O=C(/C=C/c1ccccc1)c1ccccc1` [CHALCONE], the IC50 [2] is reported as 6.92 µg/mL (≈ 33.2 µM) and the IC50 [3] is reported as 0.473 µg/mL (≈ 2.27 µM).

For `O=C(/C=C/c1ccc2c(c1)B(O)OC2)c1ccc(O)cc1`, the IC50 [2] was greater than 10 µg/mL and the IC50 [3] was 0.043 µg/mL (≈ 0.154 µM).

`O=C(/C=C/c1ccc2c(c1)B(O)OC2)c1ccc(Cl)cc1` showed a survival at 50 mg/kg [1] of 0%, an IC50 [2] greater than 10 µg/mL and an IC50 [3] of 0.06 µg/mL (≈ 0.201 µM).

`O=C(/C=C/c1ccc2c(c1)B(O)OC2)c1ccccn1` showed an IC50 [2] greater than 10 µg/mL and an IC50 [3] of 0.099 µg/mL (≈ 0.373 µM).

For `COc1ccccc1C(=O)/C=C/c1ccc2c(c1)B(O)OC2`, the IC50 [2] was 6.35 µg/mL (≈ 21.6 µM) and the IC50 [3] was 0.058 µg/mL (≈ 0.197 µM).

With `O=C(/C=C/c1ccc2c(c1)B(O)OC2)c1ccc([N+](=O)[O-])cc1` the IC50 [2] was greater than 10 µg/mL and the IC50 [3] was 0.082 µg/mL (≈ 0.265 µM).

Work on `O=C(/C=C/c1ccc2c(c1)B(O)OC2)c1cccc(O)c1` yielded an IC50 [2] of 7.56 µg/mL (≈ 27 µM) and an IC50 [3] of 0.037 µg/mL (≈ 0.132 µM).

With `O=C(/C=C/c1ccc2c(c1)B(O)OC2)c1cccc(F)c1` the IC50 [2] was greater than 10 µg/mL and the IC50 [3] was 0.046 µg/mL (≈ 0.163 µM).

Work on `O=C(/C=C/c1ccc2c(c1)B(O)OC2)c1ccco1` yielded an IC50 [2] greater than 10 µg/mL and an IC50 [3] of 0.064 µg/mL (≈ 0.252 µM).

Work on `O=C(O)c1ccc(C(=O)/C=C/c2ccc3c(c2)B(O)OC3)cc1` yielded an IC50 [2] greater than 10 µg/mL and an IC50 [3] of 4.45 µg/mL (≈ 14.4 µM).

`COc1cc(C(=O)/C=C/c2ccc3c(c2)B(O)OC3)cc(OC)c1OC` showed an IC50 [2] greater than 10 µg/mL and an IC50 [3] of 0.113 µg/mL (≈ 0.319 µM).

Work on `Cc1ccc(C(=O)/C=C/c2ccc3c(c2)B(O)OC3)cc1C` yielded an IC50 [2] greater than 10 µg/mL and an IC50 [3] of 0.04 µg/mL (≈ 0.137 µM).

`Nc1ccc(C(=O)/C=C/c2ccc3c(c2)B(O)OC3)cc1` showed an IC50 [2] greater than 10 µg/mL and an IC50 [3] of 0.024 µg/mL (≈ 0.086 µM).

`COc1ccc(C(=O)/C=C/c2ccc3c(c2)B(O)OC3)cc1` gave a survival at 50 mg/kg [1] of 0%, an IC50 [2] greater than 10 µg/mL and an IC50 [3] of 0.071 µg/mL (≈ 0.241 µM).

`Cc1ccc(C(=O)/C=C/c2ccc3c(c2)B(O)OC3)cc1` gave an IC50 [2] greater than 10 µg/mL and an IC50 [3] of 0.046 µg/mL (≈ 0.165 µM).

With `O=C(/C=C/c1ccc2c(c1)B(O)OC2)c1ccc(-c2ccccc2)cc1` the IC50 [2] was greater than 10 µg/mL and the IC50 [3] was 0.436 µg/mL (≈ 1.28 µM).

For `COc1ccc(C(=O)/C=C/c2ccc3c(c2)B(O)OC3)c(OC)c1`, the IC50 [2] was 7.87 µg/mL (≈ 24.3 µM) and the IC50 [3] was 0.037 µg/mL (≈ 0.114 µM).

Compound `COCOc1ccccc1C(=O)/C=C/c1ccc2c(c1)B(O)OC2` has an IC50 [2] of 9.02 µg/mL (≈ 27.8 µM) and an IC50 [3] of 0.366 µg/mL (≈ 1.13 µM).

`O=C(/C=C/c1ccc2c(c1)B(O)OC2)c1ccc(Cl)c(Cl)c1` gave an IC50 [2] greater than 10 µg/mL and an IC50 [3] of 0.09 µg/mL (≈ 0.27 µM).
